This is an account of results in patent US20080038374A1, “New Use” (Lipopeptide AB, priority 2004, published 2008).

Values joined by “and” are separate entries in the source; they are usually repeats but may differ in a detail not shown here. Equal values may be shown once.

One experiment has as its system angiogenesis. To be noted: cited from earlier work.
The subject of experiment [1] is hCAP18. Put plainly: Expression of hCAP18 mRNA in human primary keratinocytes by Real-Time PCR. It counts as cell-based. The protocol:
Human neonatal epidermal keratinocytes were obtained from Cascade Biologics, Inc. (Lot # 1C1145; Port-land, OR) and cultured in EpiLife serum-free keratinocyte growth medium (Cascade Biologics, Inc.) containing growth supplements and a calcium concentration of 0.06 mM. Cells at passage 3 were allowed to grow for three days to approximately 60% confluence. For calcium switch experiments, 1.5 mM CaCl2 (added from a 1 M stock solution) was added to the plates and after 48 hours the cells were regarded as differentiated (observed as an induction of mRNA expression of the two keratinocyte markers transglutaminase and cellular retinoic acid-binding protein II). The compounds assayed were 25-hydroxy-cholecalciferol (25-OH-D3), 1,25-dihydroxycholecalciferol (1,25-(OH)2-D3), and calcipotriol/MC 903 (Leo Pharmaceutical, Denmark). Their effect on hCAP18 expression was monitored by quantitivate PCR analysis.
Keratinocytes were grown as above and treated with said compounds for 4 h. RNA was extracted with the RNeasy kit (Qiagen) and reverse transcribed with a first strand synthesis kit (Amersham-Pharmacia). RNA was quantified by Real-Time PCR on an ABI Prism 7700 (Applied Biosystems) using 5 ng of cDNA according to standard protocols. The samples were evaluated in triplicates. Sequences were 5′-[…]-3′ and 5′-[…]-3′ for the primers, and 5′-[…]-3′ for the fluorigenic probe. The samples were normalized by quantification of 18S-RNA (Assay on Demand, Applied Biosystems).
To assess the specificity of the vitamin D regulation on the hCAP18 gene, the vitamin D3 precursor 7-dehydrocholesterol (7-DHC) was assayed at a concentration of 1 μM as in Example 1. 7-DHC had no effect on hCAP18 expression. […] Assays were performed and measured as above. The effect of 1,25-(OH)2-D3 is shown for comparison.

For another experiment, the system named is hCAP18 promoter. Put plainly: Stimulation of the hCAP18 promoter at different concentrations (FIG. 4). It counts as cell-based, human. To be noted: tested at 1, 10, 100 and 1000 nM. The protocol: To assess whether physiological levels were sufficient to induce the stimulation of the hCAP18 promoter, the study was performed at the different concentrations 1, 10, 100 and 1000 nM of 1,25-(OH)2-D3 and 25-OH-D3 (FIG. 4). […] The physiologic serum concentration of 25-OH-vitamin D3 is between 20 nM and 125 nM, whereas the 1,25-(OH)2-D3 is present in pM concentration. A dosage form of a vitamin D compound for topical administration includes for instance about 1-100, preferably 5-50 μg vitamin D compound per gram composition.

For the next experiment, the system named is dermatitis. To be noted: topical, 0.03-1.0 μg/g of composition; type of dermatitis not stated; cited from earlier work.
The test system of another experiment is acute wounds. The note with it: Wistar rats, intraperitonial; cited from earlier work.
Experiment [2] relates to hCAP18. Put plainly: hCAP18 mRNA in skin of atopic dermatitis patients, Real-Time PCR. To be noted: 0.002% topical, 4 days, one patient per row. On the set-up: hCAP18 mRNA, Non-lesional skin, Treated / hCAP18 mRNA, Lesional skin, Treated: unit not given here. It counts as in vivo, human. The protocol: To assay whether 1,25-(OH)2-D3 stimulated hCAP18 expression in atopic dermatitis, we applied 1,25-(OH)2-D3 on the skin of four individuals, two females and two men, with active atopic dermatitis. The patients had suffered from the eczema for 11-30 years. The diagnosis was made by a dermatologist. A stock solution of 4 mM 1,25-(OH)2-D3 in isopropanol was diluted in ethanol:propylene glycol (70:30) to a final concentration of 0.002%. To prevent deactivation of 1,25-(OH)2-D3, the procedure was performed in a room with dim light. The 1,25-(OH)2-D3 were locally applied on lesional and non-lesional skin area of patients. The skin surface was cleaned with saline solution (NaCl 0.9) before application. The treated skin area was measured to 2×2.25 cm. Evaporation time for the solutions of 1,25-(OH)2-D3 varied between 8 and 15 minutes. The skin area was then covered with plastic film and band-aid (Quickpack: Haushalt und Hygiene GmbH, Renningen, Germany; Melolin: Smith and Nephew, Hull, UK; Mefix: Molnlycke A B, Gothenburg, Sweden). After 4 days the band-aid and the plastic film were removed and the skin areas were rapidly cleaned with 40% ethanol. Punch biopsies (4 mm) were obtained from the treated skin areas (after infiltration anesthesia with 2-3 ml Xylocaln with epinephrin) and frozen instantly. On the first day, control biopsies were also obtained from non-treated lesional and non-lesional skin and the tissues were snap-frozen as described. RNA was extracted and hCAP18 mRNA expression determined by Real-Time PCR as described above in Example 1.
Background: Real-time PCR tracks product formation cycle by cycle.

The subject of experiment [3] is hCAP18. The experiment can be described thus: hCAP18/LL-37 expression in skin of healthy volunteers after topical application. Type of experiment: in vivo, human. To be noted: 0.002% solution topical, 4 days, three healthy volunteers. The protocol: To assay whether 1,25-(OH)2-D3 stimulated hCAP18 expression in vivo, we applied 1,25-(OH)2D3 to the skin of three healthy individuals.
A stock solution of 4 mM 1,25-dihydroxyvitamin D3 in isopropanol was diluted in ethanol:propylene glycol [70:30] to a final vitamin D concentration of 0.002%. The vehicle containing ethanol 96% and propylene glycol [70:30] with 0.5 mg/ml BHT (butylated hydroxy toluene) served as control. In a room with dim light, the vitamin D and the control were locally applied to the skin (the right and left upper arm respectively) of three healthy volunteers. The test area of 2×2.5 cm on each arm was cleaned with saline solution (NaCl 0.9) before application. Evaporation time for the solutions of vitamin D and the vehicle varied between 8 and 15 minutes. The tested area was then covered with plastic film and band-aid (Gladpack, Melolin and Mefix). After 4 days the band-aid and the plastic film was removed and the test area was rapidly cleaned with 40% ethanol. Punch biopsies (4 mm) were obtained from the test area (after infiltration anesthesia with 2-3 ml Xylocaln with epinefrin) and were frozen instantly. […] Protein concentrations were measured by Protein Assay Kit (Bio-Rad Laboratories, Hercules Calif.) based on the Bradford method (Bradford, 1976) and samples were diluted to a final protein concentration of 1 mg per ml. […]

Experiment [4] relates to hCAP18. To be noted: keratinocytes and leukocytes in vitro; cited from earlier work.

Turning to “LL-37/hCAP18: endogenous 37 amino acid antimicrobial peptide released by proteolytic cleavage of hCAP18 (LLGDFFRKSKEKIGKEFKRIVQRIKDFLRNLVPRTES; Antibacterial peptide LL-37; UniProt P49913 134-170, looked up)”, in the experiment on angiogenesis, the angiogenesis entry is recorded as “induces functionally important angiogenesis”.

For `C=C1/C(=C\C=C2/CCC[C@]3(C)[C@@H]([C@H](C)/C=C/[C@H](C)C(C)(C)O)CC[C@@H]23)C[C@@H](O)C[C@@H]1O` [1,25-(OH)2-D2, 1,25-dihydroxyergocalciferol], the “activity on hCAP18 expression compared with 1,25-(OH)2-D3” value in the experiment on hCAP18 [1] (concentration not given) was “activity comparable to 1,25-(OH)-D3”.

Regarding `C=C1CC[C@H](O)C/C1=C/C=C1\CCC[C@]2(C)[C@@H]([C@H](C)CCCC(C)(C)O)CC[C@@H]12` [25-OH-D3, 25-hydroxy-cholecalciferol], the “level down to which a substantial portion of stimulation remained” value with hCAP18 promoter stood at 10 nM.

Turning to `C=C1CC[C@H](O)C/C1=C/C=C1\CCC[C@]2(C)[C@@H]([C@H](C)CCCC(C)C)CC[C@@H]12` [cholecalciferol], the effect on dermatitis entry with dermatitis was “no effect”. In the experiment with acute wounds, the “re-epithelization of acute wounds” value is listed as “accelerates” and the wound breaking strength result was “increases”.

Turning to `C=C1CC[C@H](O)C/C1=C/C=C1\CCC[C@]2(C)[C@@H]([C@H](C)/C=C/[C@H](C)C(C)C)CC[C@@H]12` [ergocalciferol], in the experiment on dermatitis, the effect on dermatitis result is listed as “no effect”.

Take `C=C1/C(=C\C=C2/CCC[C@]3(C)[C@@H]([C@H](C)CCCC(C)C)CC[C@@H]23)C[C@@H](O)C[C@@H]1O` [1α-OH-cholecalciferol, 1-alpha-hydroxycholecalciferol]: in the experiment on dermatitis, the effect on dermatitis result was “marked effect”.

`C=C1/C(=C\C=C2/CCC[C@]3(C)[C@@H]([C@H](C)CCCC(C)(C)O)CC[C@@H]23)C[C@@H](O)C[C@@H]1O` [1,25-(OH)2-D3, 1,25-dihydroxy-cholecalciferol]: in the experiment with hCAP18 [2] (lesional skin), the “Increase (treated/untreated), Lesional skin” value is 5638% and 79756% and 977% and 220%; the “hCAP18 mRNA, Lesional skin, Treated” value was 1093 and 539 and 64 and 29. Further, in the experiment on hCAP18 [2] (non-lesional skin), the “Increase (treated/untreated), Non-lesional skin” value is 13104% and 520% and 841% and 459%; the “hCAP18 mRNA, Non-lesional skin, Treated” value was 739.4 and 24.8 and 24.2 and 8.1. In the experiment with hCAP18 [3], the “expression of hCAP18 and production of LL-37 in human skin in vivo” value was “Up-Regulates”. In addition, the effect on dermatitis result in the experiment with dermatitis is reported as “marked effect”. In addition, in the experiment on hCAP18 promoter, the “level down to which a substantial portion of stimulation remained” value stood at 10 nM. The “expression of hCAP18” value in the experiment on hCAP18 [4] was “directly induces”.

Consider `C=C1CC[C@H](O)C/C1=C/C=C1\CCC[C@]2(C)[C@@H]([C@H](C)CC[C@@H](O)C(C)(C)O)CC[C@@H]12` [24,25-dihydroxycholecalciferol], for which the effect on dermatitis result in the experiment with dermatitis is recorded as “no effect”.

With `[Ca+2].[Cl-].[Cl-]` [calcium, CaCl2], the “increase of hCAP18 expression by induction of differentiation” value with hCAP18 [1] (1.5 mM CaCl2, 48 hours, keratinocytes) is “about 1.5 fold”.

Turning to `CC(C)CCC[C@@H](C)[C@H]1CC[C@H]2C3=CC=C4C[C@@H](O)CC[C@]4(C)[C@H]3CC[C@]12C` [7-DHC, 7-dehydrocholesterol], the “effect on hCAP18 expression” value with hCAP18 [1] (1 μM, as in Example 1) is “no effect”.
